Laboratory results reported in ChEMBL document CHEMBL4316651, “Halogenated Tyrosine Derivatives from the Tropical Eastern Pacific Zoantharians Antipathozoanthus hickmani and Parazoanthus darwini” (J Nat Prod, 2019).
Active and inactive are the calls of the source. The rule behind the calls is not given here.

Tests used:
Staphylococcus aureus [1] = assay: Antimicrobial activity against methicillin-sensitive Staphylococcus aureus ATCC 29213 at 128 ug/ml by CLSI protocol based method; format: functional, organism-based
Staphylococcus aureus [2] = assay: Antimicrobial activity against methicillin-resistant Staphylococcus aureus MB5393 at 128 ug/ml by CLSI protocol based method; format: functional, organism-based
Escherichia coli = assay: Antimicrobial activity against Escherichia coli ATCC 25922 at 128 ug/ml by CLSI protocol based method; format: functional, organism-based
Klebsiella pneumoniae = assay: Antimicrobial activity against Klebsiella pneumoniae ATCC 700603 at 128 ug/ml by CLSI protocol based method; format: functional, organism-based
Acinetobacter baumannii = assay: Antimicrobial activity against Acinetobacter baumannii MB5973 at 128 ug/ml by CLSI protocol based method; format: functional, organism-based
Pseudomonas aeruginosa = assay: Antimicrobial activity against Pseudomonas aeruginosa PAO1 at 128 ug/ml by CLSI protocol based method; format: functional, organism-based
HepG2 = assay: Cytotoxicity in human HepG2 cells incubated for 24 hrs by MTT assay; format: functional, cell-based
A549 = assay: Cytotoxicity in human A549 cells incubated for 24 hrs by MTT assay; format: functional, cell-based
MIA PaCa-2 = assay: Cytotoxicity in human MIAPaCa2 cells incubated for 24 hrs by MTT assay; format: functional, cell-based
Candida albicans = assay: Antimicrobial activity against Candida albicans ATCC 64124 at 128 ug/ml by CLSI protocol based method; format: functional, organism-based

SMILES	Activity (Staphylococcus aureus [1])	Activity (Staphylococcus aureus [2])	Activity (Escherichia coli)	Activity (Klebsiella pneumoniae)	Activity (Acinetobacter baumannii)	Activity (Pseudomonas aeruginosa)	IC50 (HepG2; hepg2)	IC50 (A549)	IC50 (MIA PaCa-2)	Activity (Candida albicans)	IC50 (HepG2; Homo sapiens, HepG2, 24 h, read-out: IC50) [µM]
CCC(C)C(=O)Nc1nc2c([nH]1)[C@@H](C)c1[nH]c(NC(=O)C=C(C)C)nc1CC2 (some centres not stated)	inactive	inactive	inactive	inactive	inactive	inactive	Not Active	Not Active	Not Active	inactive	
C[N+]1(C)CCC[C@@H]1C(=O)N[C@@H](Cc1cc(Br)c(O)c(I)c1)C(=O)O	inactive	inactive	inactive	inactive	inactive	inactive				inactive	
C[N+](C)(C)CCc1cc(Br)c(O)c(I)c1.O=C([O-])C(F)(F)F	inactive	inactive	inactive	inactive	inactive	inactive	Not Active	Not Active	Not Active	inactive	
C[N+](C)(C)CC(=O)N[C@@H](Cc1cc(Br)c(O)c(Br)c1)C(=O)O.O=C([O-])C(F)(F)F	inactive	inactive	inactive	inactive	inactive	inactive	Not Active	Not Active	Not Active	inactive	
C[N+](C)(C)CCc1cc(I)c(O)c(I)c1.O=C([O-])C(F)(F)F	inactive	inactive	inactive	inactive	inactive	inactive	Not Active	Not Active	Not Active	inactive	
CC(C)=CC(=O)Nc1nc2c([nH]1)[C@H](C)c1[nH]c(NC(=O)C(C)C)nc1CC2	inactive	inactive	inactive	inactive	inactive	inactive	Not Active	Not Active	Not Active	inactive	
C[N+]1(C)CCC[C@@H]1C(=O)N[C@@H](Cc1cc(Br)c(O)c(Br)c1)C(=O)O.O=C([O-])C(F)(F)F	inactive	inactive	inactive	inactive	inactive	inactive	Not Active	Not Active	Not Active	inactive	
C[N+](C)(C)CC(=O)N[C@@H](Cc1cc(Br)c(O)c(I)c1)C(=O)O.O=C([O-])C(F)(F)F	inactive	inactive	inactive	inactive	inactive	inactive		Not Active	Not Active	inactive	7.8
